The test system of one series is HPV16 pseudoviruses. Description: microbe, parasite or virus in culture. Particulars: Human papillomavirus 16, HEK-293T, 48 h. The format is cell-based. The protocol:
(§1) FIG. 1. High throughout screen (HTS) for identifying inhibitors of HPV infection. Shown is a schematic showing basic steps in the HTS. […] Briefly, HPV16 pseudoviruses containing the SEAP reporter genes are analyzed for their ability to infect as judged by the levels of secreted alkaline phosphatase in the tissue culture supernatant (light grey arrows). Cell viability was assessed in parallel on the same wells (dark grey arrows). In the specific HTS carried out in this study, the compounds were added at 3 uM/1% DMSO final concentration (black arrow) 4 hours prior to infection.
(§2) After incubation at 37° C. for 24 hrs, 35 μL of media was removed. […] Cells were incubated at 37° C. for 48 hrs. 2.5 μL of media was collected for SEAP assay using a PHOSPHA-LIGHT chemiluminescent alkaline phosphatase assay (Applied Biosystems). Cell viability was determined using the CellTiter Glo Luminescent Cell Viability Assay™ (Promega).

The nature of the next series: in vitro. To be noted: human. The method, then: as §1, §2
[1] abbreviates: read-out: Infectivity (SEAP Activity), 3 μM HTS standard concentration, 293T cells, 48 hrs.
[2] abbreviates: read-out: Infectivity vs. viability, 3 μM HTS standard concentration, ratio infectivity/viability.

Where a name gives a salt, the structure may show the parent alone. Read-outs that look alike come from different tables or passages of the source.

For orientation: viability means a read-out of living cells in per cent, often relative to untreated cells. For `O=c1oc2c3c4c(cc2cc1CCO)CCCN4CCC3` [Compound 6105180, 10-(2-hydroxyethyl)-2,3,6,7-tetrahydro-1H,5H,11H-pyrano[2,3-f]pyrido[3,2,1-ij]quinolin-11-one], the results for the activity at 3 µM in the series on HPV16 pseudoviruses (setting [1]) and with HPV16 pseudoviruses (setting [2]) were 56.9% and 49.5%, respectively. The viability at 52 h, 3 μM in the series “in vitro” (Viability (CelTiter Glow)) stood at 115%.
The like results for `CN(C)c1cccc(C(=O)NCc2ccc(S(N)(=O)=O)cc2)c1` [Compound 6106063, N-[4-(aminosulfonyl)benzyl]-3-(dimethylamino)benzamide] were, in that order, 45.6%, 43.4% and 105%.
The matching figures for `Cc1c(NS(=O)(=O)c2cc(Cl)ccc2Cl)cccc1[N+](=O)[O-]` [Compound 6107659, 2,5-dichloro-N-(2-methyl-3-nitrophenyl)benzenesulfonamide]: 22.3%, 32.9% and 67.8%.
For the compound `CCOc1cccc(C(=O)Nc2ccc(NC(=O)c3ccco3)c(OC)c2)c1` [Compound 6113089, N-{4-[(3-ethoxybenzoyl)amino]-2-methoxyphenyl}-2-furamide], the activity at 3 µM with HPV16 pseudoviruses (setting [1]) worked out at 54.6%; in the series with HPV16 pseudoviruses (setting [2]) it was 52.9%. For the same compound, the viability at 52 h, 3 μM in the series “in vitro” (Viability (CelTiter Glow)) worked out at 103%.
The matching figures for `COc1cc(NC(=O)COc2ccccc2C)ccc1NC(=O)c1ccco1` [Compound 6113090, N-(2-methoxy-4-{[(2-methylphenoxy)acetyl]amino}phenyl)-2-furamide]: 55%, 51.9% and 106%.
The matching figures for `COc1ccc(S(=O)(=O)Nc2cc(Cl)ccc2C)cc1` [Compound 6118535, N-(5-chloro-2-methylphenyl)-4-methoxybenzenesulfonamide]: 39%, 52.8% and 73.9%.
On to `Cc1cccc(C(=O)Nc2cccc(NC(=O)COc3ccccc3Cl)c2)c1` [Compound 6126189, N-(3-{[(2-chlorophenoxy)acetyl]amino}phenyl)-3-methylbenzamide], for which the activity at 3 µM came out at 49.8% with HPV16 pseudoviruses (setting [1]) and 50.2% in the series on HPV16 pseudoviruses (setting [2]). In addition, in the series “in vitro” (Viability (CelTiter Glow)), the viability at 52 h, 3 μM was determined as 99.1%.
For the compound `Cc1ccc(N2C(=O)C(Cl)=C(Nc3ccc(C)c(C)c3)C2=O)c(C)c1` [Compound 6137315, 3-chloro-1-(2,4-dimethylphenyl)-4-[(3,4-dimethylphenyl)amino]-1H-pyrrole-2,5-dione], the activity at 3 µM in the series with HPV16 pseudoviruses (setting [1]) worked out at 55.9%; with HPV16 pseudoviruses (setting [2]), 59.7%. Besides, in the series “in vitro” (Viability (CelTiter Glow)), the viability at 52 h, 3 μM came out at 93.7%.
The matching figures for `O=C1NC(=S)SC1=Cc1cc(Cl)c(OCc2ccccc2)c(Cl)c1` [Compound 6142367, 5-[4-(benzyloxy)-3,5-dichlorobenzylidene]-2-thioxo-1,3-thiazolidin-4-one]: 61.2%, 57.9% and 106%.
With `COc1ccc(CCNc2cc(N3CCN(C(=O)c4ccc(Cl)cc4)CC3)ccc2[N+](=O)[O-])cc1OC` [Compound 6144357, 5-[4-(4-chlorobenzoyl)-1-piperazinyl]-N-[2-(3,4-dimethoxyphenyl)ethyl]-2-nitroaniline], the activity at 3 µM in the series with HPV16 pseudoviruses (setting [1]) was 39.5%; with HPV16 pseudoviruses (setting [2]), 46.6%. The viability at 52 h, 3 μM in the series “in vitro” (Viability (CelTiter Glow)) is 84.6%.
The like results for `Cc1nc2cc(-c3cccc(F)c3)nn2c(O)c1C` [Compound 6156840, 2-(3-fluorophenyl)-5,6-dimethylpyrazolo[1,5-a]pyrimidin-7-ol] were, in that order, 63.5%, 59.2% and 107%.
Consider `Cc1cc(C=C2C(=O)NC(=S)N(c3ccccc3F)C2=O)c(C)n1C` [Compound 6166672, 1-(2-fluorophenyl)-2-thioxo-5-[(1,2,5-trimethyl-1H-pyrrol-3-yl)methylene]dihydro-4,6(1H,5H)-pyrimidinedione], for which the results for the activity at 3 µM with HPV16 pseudoviruses (setting [1]) and with HPV16 pseudoviruses (setting [2]) were 53.5% and 49.2%, respectively. For the same compound, the viability at 52 h, 3 μM in “in vitro” amounted to 109%.
For the compound `COc1ccc(OC)c(NC(=O)CN(c2cc(OC)ccc2OC)S(C)(=O)=O)c1` [Compound 6167601, N~1~,N~2~-bis(2,5-dimethoxyphenyl)-N~2~-(methylsulfonyl)glycinamide], the activity at 3 µM in the series with HPV16 pseudoviruses (setting [1]) came to 59.1%; in the series on HPV16 pseudoviruses (setting [2]) it was 54.4%. In “in vitro” (Viability (CelTiter Glow)), the viability at 52 h, 3 μM was determined as 109%.
In the case of `CC(=O)Nc1ccccc1NC(=O)c1ccccc1I` [Compound 6168016, N-[2-(acetylamino)phenyl]-2-iodobenzamide], the activity at 3 µM in the series on HPV16 pseudoviruses (setting [1]) worked out at 57%; in the series with HPV16 pseudoviruses (setting [2]) it was 53.7%. Moreover, in “in vitro” (Viability (CelTiter Glow)), the viability at 52 h, 3 μM turned out to be 106%.
The matching figures for `COC(=O)C1=C(C)NC2=C(C(=O)c3ccccc32)C1c1ccc(-c2ccccc2C(=O)O)o1` (stereo not drawn) [Compound 6177037, 2-{5-[3-(methoxycarbonyl)-2-methyl-5-oxo-4,5-dihydro-1H-indeno[1,2-b]pyridin-4-yl]-2-furyl}benzoic acid]: 64%, 58.4% and 110%.
Take `COc1ccc(N(CC(=O)Nc2ccc(C(C)C)cc2)S(=O)(=O)c2ccccc2)cc1Cl` [Compound 6186930, N~2~-(3-chloro-4-methoxyphenyl)-N~1~-(4-isopropylphenyl)-N~2~-(phenylsulfonyl)glycinamide]: the activity at 3 µM in the series on HPV16 pseudoviruses (setting [1]) was 37.9%; in the series with HPV16 pseudoviruses (setting [2]) it was 33.5%. The viability at 52 h, 3 μM in “in vitro” (Viability (CelTiter Glow)) was 113%.
As for `O=C(NCc1ccccn1)C(=O)Nc1ccc([N+](=O)[O-])cc1` [Compound 6198885, N-(4-nitrophenyl)-N′-(2-pyridinylmethyl)ethanediamide], the activity at 3 µM in the series with HPV16 pseudoviruses (setting [1]) came to 57.5%; with HPV16 pseudoviruses (setting [2]) it was 53.8%. In “in vitro” (Viability (CelTiter Glow)), the viability at 52 h, 3 μM worked out at 107%.
Turning to `COC(=O)C1=C(C)NC2=C(C(=O)c3ccccc32)C1c1ccc(OCc2ccc([N+](=O)[O-])cc2)c(Cl)c1` (stereo not drawn) [Compound 6202416, methyl 4-{3-chloro-4-[(4-nitrobenzyl)oxy]phenyl}-2-methyl-5-oxo-4,5-dihydro-1H-indeno[1,2-b]pyridine-3-carboxylat], the activity at 3 µM turned out to be 51.4% with HPV16 pseudoviruses (setting [1]) and 42% in the series on HPV16 pseudoviruses (setting [2]). In addition, in “in vitro” (Viability (CelTiter Glow)), the viability at 52 h, 3 μM is 123%.
The like results for `CS(=O)(=O)N(CC(=O)Nc1cccc(Br)c1)c1ccc(Cl)cc1` [Compound 6218383, N~1~-(3-bromophenyl)-N~2~-(4-chlorophenyl)-N~2~-(methylsulfonyl)glycinamide] were, in that order, 47.4%, 46.9% and 101%.
Take `CCc1ccccc1N(CC(=O)OC)S(C)(=O)=O` [Compound 6226431, methyl N-(2-ethylphenyl)-N-(methylsulfonyl)glycinate]: the activity at 3 µM came out at 62.8% with HPV16 pseudoviruses (setting [1]) and 55.2% in the series on HPV16 pseudoviruses (setting [2]). For the same compound, the viability at 52 h, 3 μM in “in vitro” (Viability (CelTiter Glow)) turned out to be 114%.
For `Cc1cccc(C=C2C(=O)NN(c3ccccc3)C2=O)c1` [Compound 6233808, 4-(3-methylbenzylidene)-1-phenyl-3,5-pyrazolidinedione], the activity at 3 µM in the series on HPV16 pseudoviruses (setting [1]) is 58.5%; in the series with HPV16 pseudoviruses (setting [2]) it was 50.2%. The viability at 52 h, 3 μM in “in vitro” (Viability (CelTiter Glow)) worked out at 117%.
For `CC1CCc2c(sc(NC(=O)c3ccccc3)c2C(N)=O)C1` (stereo not drawn) [Compound 6239347, 2-(benzoylamino)-6-methyl-4,5,6,7-tetrahydro-1-benzothiophene-3-carboxamide], the activity at 3 µM with HPV16 pseudoviruses (setting [1]) amounted to 55.1%; with HPV16 pseudoviruses (setting [2]), 40.5%. For the same compound, the viability at 52 h, 3 μM in “in vitro” (Viability (CelTiter Glow)) was determined as 136%.
For `O=C(NCc1c(Cl)cccc1Oc1ccccc1)Nc1ccc(F)cc1` [HTS 04313, N-(2-chloro-6-phenoxybenzyl)-N′-(4-fluorophenyl)urea], the activity at 3 µM with HPV16 pseudoviruses (setting [1]) was found to be 36.4%; with HPV16 pseudoviruses (setting [2]), 42.7%. For the same compound, the viability at 52 h, 3 μM in the series “in vitro” (Viability (CelTiter Glow)) is 85.3%.
The matching figures for `N#CCCN1CCCN(CCC#N)CCN(CCC#N)CCCN(CCC#N)CC1` [JFD 02931, 3-[4,8,11-tri(2-cyanoethyl)-1,4,8,11-tetraazacyclotetradecanyl]propanenitrile]: 46.7%, 46.7% and 99.9%.
The matching figures for `O=C(CCSc1ccc(C(F)(F)F)cc1)c1ccco1` [MWP 01152, 1-furan-2-yl-3-[4-(trifluoromethyl)phenyl]sulfanylpropan-1-one]: 57.8%, 56.1% and 103%.
`CC(=O)Oc1ccc(OC(C)=O)c2c1C1C=CC2CC1` [NRB 00571, 6-(acetyloxy)tricyclo[6.2.2.0~2,7~]dodeca-2(7),3,5,9-tetraen-3-yl acetate]: the activity at 3 µM with HPV16 pseudoviruses (setting [1]) turned out to be 49.3%; in the series on HPV16 pseudoviruses (setting [2]) it was 45.5%. Moreover, in “in vitro” (Viability (CelTiter Glow)), the viability at 52 h, 3 μM stood at 108%.
The like results for `CCNS(=O)(=O)c1ccc(-c2oc3cc(S(=O)(=O)NCC)ccc3c2Cl)cc1` [NRB 00942, 3-chloro-N-ethyl-2-[4-(ethylsulfamoyl)phenyl]-1-benzofuran-6-sulfonamide] were, in that order, 37.7%, 37.8% and 99.7%.
For the compound `O=C1C(=Cc2ccccc2)CCCC1CN1CCOCC1` (stereo not drawn) [NRB 01540, 2-benzylidene-6-(morpholinomethyl)cyclohexan-1-one hydrochloride], the activity at 3 µM in the series on HPV16 pseudoviruses (setting [1]) worked out at 50.5%; with HPV16 pseudoviruses (setting [2]), 49.9%. In addition, the viability at 52 h, 3 μM in “in vitro” (Viability (CelTiter Glow)) was found to be 101%.

For the origin of these results see patent publication US9949980B2, “Drugs to prevent HPV infection” (Wisconsin Alumni Research Foundation, priority 2008, dated 2018).
